This assay has as its system HepG2. The assay is described as follows: Cytotoxicity against human HepG2 cells assessed as cell viability up to 100 uM after 48 hrs by CCK-8 assay. In kind it is functional, cell-based. (In general: Tetrazolium assays rely on reduction of a dye to a coloured formazan, in cell work by metabolically active cells.)

Activity calls are given as the source filed them. The rule behind the calls is not given here.

Take `CCC(C)C(=O)C1=C(O)C(C)C(C)OC1=O` (stereo unspecified): the result was inactive.

The record behind these values is ChEMBL document CHEMBL3596141, “Isolation and Structure Elucidation of Fujikurins A-D: Products of the PKS19 Gene Cluster in Fusarium fujikuroi” (J Nat Prod, 2015).
